Legend:
Plk1 = details: read-out: IC50 against Plk1; cited from earlier work
HeLa cells = experiment: MTS cell proliferation assay in asynchronously growing HeLa cells; assay type: cell-based, human; details: treated 2 days

Substance	IC50 (Plk1) [nM]	inhibition of cell proliferation (MTS) (HeLa cells)
PLH*SpT	17	
PLHST		failed to show any detectable level of cell cytotoxicity

Source: article PMC10411393 (Journal of medicinal chemistry, 2022)
